Tests used:
Type in all cases: in vivo, human
[1] = Example 3: Phase 1 study of ketoconazole 200 mg twice daily with mifepristone 600 mg once daily with food, plasma PK incl. cross-study comparison; conditions: for mean increase / change in exposure on co-administration with ketoconazole: 600 mg mifepristone once daily with 200 mg ketoconazole twice daily; for effect of ketoconazole on exposure (90% CI vs standard 80:125 interval): Day 17 vs Day 12; for concentrations on Day 17 compared with Day 12: Day 17 with 200 mg ketoconazole twice daily, Day 12 mifepristone alone; for AUC0-24 Ratio % Test/Ref (cross-study, geometric mean ratio) / Cmax Ratio % Test/Ref (cross-study, geometric mean ratio): Test: Present Study Day 17 600 mg mifepristone OD + 200 mg Ketoconazole BID, Reference: Historic Study Day 7 1200 mg mifepristone OD alone, after 34% fat meal
[2] = Example 2: effect of a 400 mg single dose of ketoconazole on PK of an 8-day regimen of 300 mg or 600 mg OD mifepristone, moderate fat breakfast
Method: This was an open-label study in healthy male subjects. […] The 400 mg single dose of ketoconazole was given to all subjects on day 8.
METHODOLOGY: Twelve subjects were enrolled, six in Cohort 1 and 6 in Cohort 2.
Subjects were discharged on Day 11.
Subjects were discharged on Day 11. Subjects in both cohorts returned to study center on Day 13 for safety monitoring, collection of the 120-hour PK draw, and completion of the Termination Visit procedures, followed by discharge from the study. To the extent possible, any adverse events deemed study drug-related and that were ongoing at the time of discharge from the study were followed-up to resolution or until a determination was made that the unresolved event was stable.
DIAGNOSIS AND MAIN […] FOR INCLUSION: Healthy male volunteers between the ages of 18 to 45 years of age with a body mass index (BMI) ranging between 19 and 32 kg/m2 and a weight of at least 60 kg (132 lbs) were enrolled. Subjects had no clinically significant abnormal findings on the physical examination, ECG, blood pressure, heart rate, medical history, or clinical laboratory results during screening. The QTc interval at screening was less than 450 msec.
DURATION OF TREATMENT: Up to a total of 28 days, including up to 2 weeks screening, dosing on Days 1-8, safety observation, and PK sample collection through Day 13.
Additionally, comparisons were made between the PK results of cohort 1 and 2. Pharmacokinetic parameters Cmax, T1/2 and total AUC were calculated for plasma concentrations of ketoconazole following the single dose on Day 8. Descriptive statistics (count, mean, median, standard deviation, minimum, maximum, and % coefficient of variation) were provided. Ketoconazole concentrations were listed and summarized. GM means of Cmax and total AUC were compared for the single dose in this study to the combined data of reported 400 mg single doses of ketoconazole of healthy subjects from the literature.

[3] = Example 1: safety (adverse events, laboratory tests, ECG); conditions: mifepristone 300 mg single dose with ketoconazole for 14 days
Method: In cohort 1, six subjects received ketoconazole 400 mg OD for 14 days.
In cohort 2, six subjects received ketoconazole 200 mg BID for 14 days. […] All 12 subjects completed the study. Cohort 2 subjects participated in a Screening visit to assess eligibility and a check-in Day (Day −1) during which eligibility was re-confirmed. […] The evening of Day 1, subjects received 200 mg oral ketoconazole. Subjects remained in the clinic on Days 2, 3 and 4 to receive 200 mg BID oral ketoconazole, and for safety evaluation and collection of blood pharmacokinetic (PK) samples. Subjects were discharged from the clinic on Day 4 following evening administration of 200 mg oral ketoconazole, and returned to the clinic the morning and evening of Days 5 through 13 to receive 200 mg BID oral ketoconazole. Morning doses of ketoconazole on Days 0-13 were administered in the fasted state.
Subjects in both cohorts returned to the study center on Day 15 for safety monitoring, and completion of the Termination Visit procedures, followed by discharge from the study. Safety was assessed by spontaneously reported adverse events, physical examinations, and routine clinical laboratory tests. To the extent possible, any adverse events deemed study drug-related and that were ongoing at the time of discharge from the study were followed-up to resolution or until a determination is made that the unresolved event was stable.

[4] = Test: Day 17 600 mg mifepristone OD + 200 mg Ketoconazole BID, Reference: Day 12 600 mg mifepristone OD
[5] = single 400 mg ketoconazole dose on Day 8
[6] = 400 mg ketoconazole (200 mg twice per day) concomitantly with 600 mg mifepristone per day, fifth day
[7] = Test: Day 17 600 mg mifepristone OD + 200 mg Ketoconazole BID, Reference: Day −1 200 mg Ketoconazole Single Dose

mean increase / change in exposure on co-administration with ketoconazole [1] | effect of ketoconazole on exposure (90% CI vs standard 80:125 interval) [1] | concentrations on Day 17 compared with Day 12 [1] | AUC0-24 Ratio % Test/Reference (geometric mean ratio) [1, 4] | Cmax Ratio % Test/Reference (geometric mean ratio) [1, 4] | AUC0-24 Ratio % Test/Ref (cross-study, geometric mean ratio) [1] | Cmax Ratio % Test/Ref (cross-study, geometric mean ratio) [1] | mean metabolite exposure compared with mifepristone ([2]; 300 or 600 mg OD mifepristone, Days 7-13) | share of total steady-state AUC0-24 of mifepristone, RU42633, RU42698, RU42848 ([1]; in the presence of ketoconazole) | share of total steady-state AUC0-24 of mifepristone, RU42633, RU42698, RU42848 ([1]; mifepristone alone) | AUCinf higher on 600 mg OD mifepristone regimen relative to 300 mg OD [2, 5] | Cmax higher on 600 mg OD mifepristone regimen relative to 300 mg OD [2, 5] | half-life on either mifepristone regimen ([2]; single 400 mg ketoconazole dose on Day 8, mifepristone 300 vs 600 mg OD) | increase in ketoconazole AUC [1, 6] | increase in ketoconazole Cmax [1, 6] | AUC Ratio % Test/Reference (geometric mean ratio) [1, 7] | Cmax Ratio % Test/Reference (geometric mean ratio) [1, 7] | SMILES | TEAEs considered by the investigator to be related to the drug [3]
little change | not affected | similar | 102.33% | 105.73% | 91.34% | 96.31% | – | – | – | – | – | – | – | – | – | – | CC#C[C@]1(O)CC[C@H]2[C@@H]3CCC4=CC(=O)CCC4=C3[C@@H](c3ccc(NC)cc3)C[C@@]21C [RU 42633, (8S,11R,13S,14S,17S)-17-hydroxy-13-methyl-11-[4-(methylamino)phenyl]-17-prop-1-ynyl-1,2,6,7,8,11,12,14,15,16-decahydrocyclopenta[a]phenanthren-3-one] | –
approximately 70% | increased | higher | 166.86% | 169.13% | 118.18% | 116.55% | lower | 13% | 9% | – | – | – | – | – | – | – | CN(C)c1ccc([C@H]2C[C@@]3(C)[C@@H](CC[C@@]3(O)C#CCO)[C@@H]3CCC4=CC(=O)CCC4=C32)cc1 [RU 42698, (8S,11R,13S,14S,17S)-11-[4-(dimethylamino)phenyl]-17-hydroxy-17-(3-hydroxyprop-1-ynyl)-13-methyl-1,2,6,7,8,11,12,14,15,16-decahydrocyclopenta[a]phenanthren-3-one] | –
little change | not affected | similar | 94.88% | 95.48% | 81.43% | 82.45% | – | – | – | – | – | – | – | – | – | – | CC#C[C@]1(O)CC[C@H]2[C@@H]3CCC4=CC(=O)CCC4=C3[C@@H](c3ccc(N)cc3)C[C@@]21C [RU 42848, (8S,11R,13S,14S,17S)-11-(4-aminophenyl)-17-hydroxy-13-methyl-17-prop-1-ynyl-1,2,6,7,8,11,12,14,15,16-decahydrocyclopenta[a]phenanthren-3-one] | –
– | – | – | – | – | – | – | – | – | – | 36% | 37% | not appreciably different | 253% | 365% | 365.36% | 252.71% | CC(=O)N1CCN(c2ccc(OCC3COC(Cn4ccnc4)(c4ccc(Cl)cc4Cl)O3)cc2)CC1 (centres unmarked) [ketoconazole, 1-acetyl-4-[4-[[2-(2,4-dichlorophenyl)-2-[(1H-imidazol-1-yl)-methyl]-1,3-dioxolan-4-yl]methoxy]phenyl]piperazine] | One TEAE of insomnia

— patent US20170281651A1, “CONCOMITANT ADMINISTRATION OF GLUCOCORTICOID RECEPTOR MODULATORS AND CYP3A OR STEROIDOGENESIS INHIBITORS” (Corcept Therapeutics, Inc., priority 2017, published 2017)
